Data taken from patent US10011595B2 (Merck Sharp & Dohme Corp., priority 2014, dated 2018).
pIC50: −log10 of the molar value.

Biological target: human orexin-2 receptor (Homo sapiens (Human), UniProt O43614)
Test: FLIPR Ca2+ Flux Assay, orexin-2 receptor
Assay type: cell-based
Details: CHO cells expressing the human orexin-2 receptor; agonist 70 pM Ala-6,12 orexin-A; read-out: hOX2R FLIPR IC50
Procedure: In a typical experiment the OX1 and OX2 receptor antagonistic activity of the compounds of the present invention was determined in accordance with the following experimental method. For intracellular calcium measurements, Chinese hamster ovary (CHO) cells expressing the rat orexin-1 receptor or the human orexin-2 receptor, are grown in Iscove's modified DMEM containing 2 mM L-glutamine, […], 1% hypoxanthine-thymidine supplement, 100 U/ml penicillin, 100 μg/ml streptomycin and 10% heat-inactivated fetal calf serum (FCS). The cells are seeded at 20,000 cells/well into Becton-Dickinson black 384-well clear bottom sterile plates coated with poly-D-lysine. All reagents were from GIBCO-Invitrogen Corp. The seeded plates are incubated overnight at 37° C. and 5% CO2. Ala-6,12 human orexin-A as the agonist is prepared as a 1 mM stock solution in 1% bovine serum albumin (BSA) and diluted in assay buffer (HBSS containing 20 mM HEPES, 0.1% BSA and 2.5 mM probenecid, pH7.4) for use in the assay at a final concentration of 70 pM. Test compounds are prepared as 10 mM stock solution in DMSO, then diluted in 384-well plates, first in DMSO, then assay buffer. On the day of the assay, cells are washed 3 times with 100 μl assay buffer and then incubated for 60 min (37° C., 5% CO2) in 60 μl assay buffer containing 1 μM Fluo-4AM ester, 0.02% pluronic acid, and 1% BSA. The dye loading solution is then aspirated and cells are washed 3 times with 100 μl assay buffer. 30 μl of that same buffer is left in each well. Within the Fluorescent Imaging Plate Reader (FLIPR, Molecular Devices), test compounds are added to the plate in a volume of 25 μl, incubated for 5 min and finally 25 μl of agonist is added. Fluorescence is measured for each well at 1 second intervals for 5 minutes and the height of each fluorescence peak is compared to the height of the fluorescence peak induced by 70 pM Ala-6,12 orexin-A with buffer in place of antagonist. For each antagonist, IC50 value (the concentration of compound needed to inhibit 50% of the agonist response) is determined. Alternatively, compound potency can be assessed by a radioligand binding assay (described in Bergman et. al. Bioorg. Med. Chem. Lett. 2008, 18, 1425-1430) in which the inhibition constant (Ki) is determined in membranes prepared from CHO cells expressing either the OX1 or OX2 receptor. The intrinsic orexin receptor antagonist activity of a compound which may be used in the present invention may be determined by these assays.

Chain of human orexin-2 receptor (O43614 whole entry): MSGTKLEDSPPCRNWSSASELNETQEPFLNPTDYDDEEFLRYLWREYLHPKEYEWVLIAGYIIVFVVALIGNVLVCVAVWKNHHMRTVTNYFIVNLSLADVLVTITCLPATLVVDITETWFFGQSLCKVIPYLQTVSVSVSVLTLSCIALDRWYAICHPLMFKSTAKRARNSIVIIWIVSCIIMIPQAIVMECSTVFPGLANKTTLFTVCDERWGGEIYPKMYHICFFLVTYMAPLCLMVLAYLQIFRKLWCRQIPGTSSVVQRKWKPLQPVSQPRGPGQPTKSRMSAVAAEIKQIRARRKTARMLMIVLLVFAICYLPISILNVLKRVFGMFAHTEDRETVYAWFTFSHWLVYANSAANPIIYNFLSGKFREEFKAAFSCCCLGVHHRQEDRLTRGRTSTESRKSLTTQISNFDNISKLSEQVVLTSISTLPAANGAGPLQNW

Row | Compound | pIC50
1 | CCN(CCN(C)c1nc(C)cc(C)n1)C(=O)c1ccccc1-n1nccn1 [Example A-1, N-(2-((4,6-dimethylpyrimidin-2-yl)(methyl)amino)ethyl)-N-ethyl-2-(2H-1,2,3-triazol-2-yl)benzamide] | 7.44
2 | CCN(CCNc1nc(C)cc(C)n1)C(=O)c1ccccc1-n1nccn1 [Example A-5, N-(2-((4,6-dimethylpyrimidin-2-yl)amino)ethyl)-N-ethyl-2-(2H-1,2,3-triazol-2-yl)benzamide] | 5.75
3 | CCN(CCN(C)c1nc(C)cc(C)n1)C(=O)c1ccccc1C1CC1 [Example B-1, 2-cyclopropyl-N-(2-((4,6-dimethylpyrimidin-2-yl)(methyl)amino)ethyl)-N-ethylbenzamide] | 7.58
4 | CCN(CCN(C)c1nc(C)cc(C)n1)C(=O)c1cccnc1OC(C)C [Example B-5, N-(2-((4,6-dimethylpyrimidin-2-yl)(methyl)amino)ethyl)-N-ethyl-2-isopropoxynicotinamide] | 7.10
5 | CCOc1ncccc1C(=O)N(CC)CCN(C)c1nc(C)cc(C)n1 [Example B-6, N-(2-((4,6-dimethylpyrimidin-2-yl)(methyl)amino)ethyl)-2-ethoxy-N-ethylnicotinamide] | 7.17
6 | CCN(CCN(C)c1nc(C)cc(C)n1)C(=O)c1ccccc1OC(F)(F)F [Example B-7, N-(2-((4,6-dimethylpyrimidin-2-yl)(methyl)amino)ethyl)-N-ethyl-2-(trifluoromethoxy)benzamide] | 8.03
7 | CCN(CCN(C)c1nc(C)cc(C)n1)C(=O)c1ccccc1OC(F)F [Example B-8, 2-(difluoromethoxy)-N-(2-((4,6-dimethylpyrimidin-2-yl)(methyl)amino)ethyl)-N-ethylbenzamide] | 7.73
8 | CCN(CCN(C)c1nc(C)cc(C)n1)C(=O)c1cccnc1-c1ccccc1 [Example B-9, N-(2-((4,6-dimethylpyrimidin-2-yl)(methyl)amino)ethyl)-N-ethyl-2-phenylnicotinamide] | 7.58
9 | CCN(CCN(C)c1nc(C)cc(C)n1)C(=O)c1cccnc1OCC(F)F [Example B-10, 2-(2,2-difluoroethoxy)-N-(2-((4,6-dimethylpyrimidin-2-yl)(methyl)amino)ethyl)-N-ethylnicotinamide] | 7.39
10 | CCN(CCN(C)c1nc(C)cc(C)n1)C(=O)c1cccnc1OCC(F)(F)F [Example B-11, N-(2-((4,6-dimethylpyrimidin-2-yl)(methyl)amino)ethyl)-N-ethyl-2-(2,2,2-trifluoroethoxy)nicotinamide] | 7.70
11 | CCN(CCN(C)c1nc(C)cc(C)n1)C(=O)c1ccc(F)cc1-n1nccn1 [Example B-12, N-(2-((4,6-dimethylpyrimidin-2-yl)(methyl)amino)ethyl)-N-ethyl-4-fluoro-2-(2H-1,2,3-triazol-2-yl)benzamide] | 7.90
12 | CCOc1ccccc1C(=O)N(CC)CCN(C)c1nc(C)cc(C)n1 [Example B-13, N-(2-((4,6-dimethylpyrimidin-2-yl)(methyl)amino)ethyl)-2-ethoxy-N-ethylbenzamide] | 7.80
13 | CCN(CCN(C)c1nc(C)cc(C)n1)C(=O)c1ccccc1-n1cccn1 [Example B-14, N-(2-((4,6-dimethylpyrimidin-2-yl)(methyl)amino)ethyl)-N-ethyl-2-(1H-pyrazol-1-yl)benzamide] | 7.86
14 | CCN(CCN(C)c1nc(C)cc(C)n1)C(=O)c1nccnc1-n1nccn1 [Example B-15, N-(2-((4,6-dimethylpyrimidin-2-yl)(methyl)amino)ethyl)-N-ethyl-3-(2H-1,2,3-triazol-2-yl)pyrazine-2-carboxamide] | 5.90
15 | CCCc1ccccc1C(=O)N(CC)CCN(C)c1nc(C)cc(C)n1 [Example B-16, N-{2-[(4,6-dimethylpyrimidin-2-yl)(methyl)amino]ethyl}-N-ethyl-2-propylbenzamide] | 7.70
16 | CCN(CCN(C)c1nc(C)cc(C)n1)C(=O)c1ccccc1OCC(F)(F)F [Example B-17, N-{2-[(4,6-dimethylpyrimidin-2-yl)(methyl)amino]ethyl}-N-ethyl-2-(2,2,2-trifluoroethoxy)-benzamide] | 7.95
17 | CCN(CCN(C)c1nc(C)cc(C)n1)C(=O)c1ccccc1CC(F)(F)F [Example B-18, N-{2-[(4,6-dimethylpyrimidin-2-yl)(methyl)amino]ethyl}-N-ethyl-2-(2,2,2-trifluoroethyl)benzamide] | 7.44
18 | CCN(CCN(C)c1nc(C)cc(C)n1)C(=O)c1ccc(OC)nc1C1CC1 [Example B-19, 2-cyclopropyl-N-{2-[(4,6-dimethylpyrimidin-2-yl)(methyl)amino]ethyl}-N-ethyl-6-methoxypyridine-3-carboxamide] | 7.49
19 | CCN(CCN(C)c1nc(C)cc(C)n1)C(=O)c1ccccc1OCC(F)F [Example B-20, 2-(2,2-difluoroethoxy)-N-{2-[(4,6-dimethylpyrimidin-2-yl)(methyl)amino]ethyl}-N-ethylbenzamide] | 8.04
20 | CCN(CCN(C)c1nc(C)cc(C)n1)C(=O)c1cccnc1CC(F)(F)F [Example B-21, N-{2-[(4,6-dimethylpyrimidin-2-yl)(methyl)amino]ethyl}-N-ethyl-2-(2,2,2-trifluoroethyl)pyridine-3-carboxamide] | 6.37
21 | CCN(CCN(C)c1nc(C)cc(C)n1)C(=O)c1ncccc1-n1nccn1 [Example B-22, N-{2-[(4,6-dimethylpyrimidin-2-yl)(methyl)amino]ethyl}-N-ethyl-3-(2H-1,2,3-triazol-2-yl)pyridine-2-carboxamide] | 7.49
22 | CCN(CCN(C)c1nc(C)cc(C)n1)C(=O)c1ccccc1CC(F)F [Example B-23, 2-(2,2-difluoroethyl)-N-{2-[(4,6-dimethylpyrimidin-2-yl)(methyl)amino]ethyl}-N-ethylbenzamide] | 7.02
23 | CCN(CCN(C)c1nc(C)cc(C)n1)C(=O)c1cccnc1-n1cccn1 [Example B-24, N-{2-[(4,6-dimethylpyrimidin-2-yl)(methyl)amino]ethyl}-N-ethyl-2-(1H-pyrazol-1-yl)pyridine-3-carboxamide] | 7.89
24 | CCN(CCN(C)c1nc(C)cc(C)n1)C(=O)c1nccnc1N1CCCC1 [Example B-25, N-{2-[(4,6-dimethylpyrimidin-2-yl)(methyl)amino]ethyl}-N-ethyl-3-pyrrolidin-1-ylpyrazine-2-carboxamide] | 6.49
25 | CCN(CCN(C)c1nc(C)cc(C)n1)C(=O)c1ccccc1C1CCC1 [Example B-26, 2-cyclobutyl-N-{2-[(4,6-dimethylpyrimidin-2-yl)(methyl)amino]ethyl}-N-ethylbenzamide] | 7.69
26 | CCN(CCN(C)c1nc(C)cc(C)n1)C(=O)c1ncccc1-c1ccccc1 [Example B-27, N-{2-[(4,6-dimethylpyrimidin-2-yl)(methyl)amino]ethyl}-N-ethyl-3-phenylpyridine-2-carboxamide] | 7.90
27 | CCN(CCN(C)c1nc(C)cc(C)n1)C(=O)c1nccnc1-n1cccn1 [Example B-28, N-{2-[(4,6-dimethylpyrimidin-2-yl)(methyl)amino]ethyl}-N-ethyl-3-(1H-pyrazol-1-yl)pyrazine-2-carboxamide] | 7.73
28 | CCN(CCN(C)c1nc(C)cc(C)n1)C(=O)c1ccccc1C1CC1(F)F (stereo not shown) [Example B-29, 2-(2,2-difluorocyclopropyl)-N-{2-[(4,6-dimethylpyrimidin-2-yl)(methyl)amino]ethyl}-N-ethylbenzamide] | 7.72
